# From patent US20060110401A1, “Mixture of peptides from c and ns3 proteins of the hepatitis c virus and applications thereof” (priority 2002, published 2006)
# Read-outs that look alike come from different tables or passages of the source. Residues, ends and D or L forms follow the SMILES beside them.
# Assays:
# [1] = target: T1, HLA-DR15 (DRB1*1501) (Homo sapiens, UniProt P01903+P01911); test: biochemical; type: binding
# T1 construct: endogenous in cells; host or cells: homozygous EBV-transformed human B lymphocyte lines; immunopurified with antibody L243
# [2] = tested on: DRB4; test: DRB4
# Text: (§1) Table printed on a drawing sheet, Figure 2
# Where the first naming reader finds the target: head: DRB4
# [3] = tested on: DR3; test: DR3
# Text: as §1
# Where the first naming reader finds the target: head: DR3
# [4] = tested on: DR4; test: DR4
# [5] = target: HLA-DR7 (DRB1*0701) (Homo sapiens, UniProt P01903+P01911, A100R/A102G/A103Q/D57E/D86V/E43K/F76Y/K127E/L162R/M171V/P40G/Q125H/Q99D/R33Q/R42Y/R54Q/S133A/S66F/T210M/V115G/Y107V/Y59L/Y89S); test: biochemical; type: binding
# [6] = tested on: DR15; test: DR15
# [7] = tested on: DR7; test: DR7
# [8] = tested on: DR11; test: DR11
# Text: as §1
# Where the first naming reader finds the target: head: DR11
# [9] = target: HLA-DR13 (DRB1*1301) (Homo sapiens, UniProt P01903+P01911, A100E/A169T/K41T/L162R/M171V/P40S/Q125H/Q178H/Q39Y/Q99D/R42S/S66N/T262R/W38E/Y61H); test: biochemical; type: binding
# [10] = tested on: DR13; test: DR13
# Text: as §1
# Where the first naming reader finds the target: head: DR13
# [11] = tested on: DP401; test: DP401
# [12] = tested on: DRB3; test: DRB3
# [13] = target: T2, HLA-DR1 (DRB1*0101) (Homo sapiens, UniProt P01903+P01911, A100R/D57E/F55L/F60I/F76Y/I96L/L162R/M171V/P40L/Q125E/R42F/V115G/Y59C); test: biochemical; type: binding; settings: DRB1*0101
# T2 construct: endogenous in cells; host or cells: homozygous EBV-transformed human B lymphocyte lines; immunopurified with antibody L243
# [14] = target: HLA-DR11 (DRB1*1101) (Homo sapiens, UniProt P01903+P01911, A100R/A169T/A87E/I96F/K41T/L162R/M171V/P40S/Q125H/Q178H/Q39Y/Q99D/R42S/S66Y/T262R/V115G/W38E); test: biochemical; type: binding
# HLA-DR11 (DRB1*1101), sequence (P01903 26-254 limits assumed, other chains not shown): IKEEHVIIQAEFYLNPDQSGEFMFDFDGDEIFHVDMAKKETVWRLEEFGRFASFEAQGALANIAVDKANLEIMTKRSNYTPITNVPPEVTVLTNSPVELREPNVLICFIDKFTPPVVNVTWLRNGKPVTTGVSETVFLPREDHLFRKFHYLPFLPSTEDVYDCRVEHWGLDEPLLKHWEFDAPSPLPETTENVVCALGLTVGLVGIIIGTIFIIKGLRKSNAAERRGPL
# [15] = target: HLA-DP402 (DPB1*0402) (Homo sapiens, UniProt P04440+P20036, A65V/A84D/A85E/L207M); test: biochemical; type: binding; settings: DP*0402; read-out: binds with good affinity to DP402
# [16] = target: T3, HLA-DRB5 (DRB5*0101) (Homo sapiens, UniProt P01903+Q30154); test: biochemical; type: binding
# T3 construct: endogenous in cells; host or cells: homozygous EBV-transformed human B lymphocyte lines; immunopurified with antibody L243
# [17] = tested on: DRB5; test: DRB5
# [18] = tested on: CD4+ T lymphocyte lines derived from a seronegative individual; test: IFN-γ ELISPOT after in vitro immunization; type: cell-based, human; settings: after 4 restimulations; for response of line P014/A (T lymphocytes secreting IFN-γ): FIG. 5A; for response of line P014/C (T lymphocytes secreting IFN-γ): FIG. 5C
# Protocol: The ability of the peptides having good affinity for the HLA II molecules to induce stimulation of specific T lymphocytes in vitro was evaluated using blood samples from individuals seronegative for HCV. This involves evaluating the ability to recruit CD4+ precursor lymphocytes although they are, in a naïve individual, at very low frequency, i.e. to carry out an immunization in vitro by means of these peptides.
# Peripheral blood mononuclear cells (PBMCs) were separated on a Ficoll gradient. The PBMCs were then cultured in AIM V medium (Life Technologies) and incubated in flasks, in an incubator at 37° C. in the presence of 5% of CO2. After overnight incubation, the non-adherent cells were recovered and loaded onto an LS+column (Miltenyi), and the CD4+ T lymphocytes thus purified were then frozen. The adherent cells were incubated for 5 days in AIM V medium containing 1000 U/ml of GM-CSF and 1000 U/ml of IL-4, and the cells that had differentiated into dendritic cells were then cultured for 2 days in the presence of 1 μg/ml of LPS, 1000 U/ml of IL-4 and 1000 U/ml of GM-CSF, so as to induce their maturation.
# The mature dendritic cells (100 000 cells/well) were then incubated with a mixture of peptides (10 μg of each peptide), for 5 hours at 37° C. The mature dendritic cells were subsequently washed and then incubated, in the presence of the CD4+ T lymphocytes (100 000 cells/well) thawed beforehand, in medium containing 1000 U/ml of IL-6 and 10 ng/ml of IL-12. After 7 days, the culture was restimulated a first time by means of mature dendritic cells that had been thawed and loaded with the mixture of peptides beforehand, in medium containing IL-2 (10 U/ml) and IL-7 (5 ng/ml). 7 days later, the culture was restimulated, in a similar manner, in a medium containing no IL-2. After two further stimulations, under the above conditions, the cells were assayed by ELISPOT, in the following way:
# […]. After washing with PBS buffer and then with PBS/0.05% Tween, 100 μl of biotin-conjugated anti-IFNγ secondary antibody (7-B6-1-biotin, Mabtech), diluted to 1 μg/ml in PBS containing 0.05% Tween 20 and 1% BSA, were added to each well. After incubation for one hour, the plates were washed again, and incubated with 100 μl/well of Extravidin-AKP (No. 2636, SIGMA), diluted to 1/5000 in PBS containing 0.05% Tween 20 and 1% BSA. The immunoenzymatic reaction was then visualized by means of the kit No. 170-6432 (Biorad).
# [19] = target: T4, HLA-DR4 (DRB1*0401) (Homo sapiens, UniProt P01903+P01911, A100K/A169T/F76Y/I96L/K127E/L162R/M171V/N62H/P40V/Q125Y/R42H/S133A/S149N/S66Y/V115G/V209L/W38E); test: biochemical; type: binding
# T4 construct: endogenous in cells; host or cells: homozygous EBV-transformed human B lymphocyte lines; immunopurified with antibody L243
# [20] = target: T5, HLA-DRB4 (DRB4*0101) (Homo sapiens, UniProt P01903+P13762, G164S); test: biochemical; type: binding
# T5 construct: endogenous in cells; host or cells: homozygous EBV-transformed human B lymphocyte lines; immunopurified with antibody L243
# [21] = tested on: DP402; test: DP402
# [22] = target: T6, HLA-DR3 (DRB1*0301) (Homo sapiens, UniProt P01903+P01911, A100K/A102G/A103R/A169T/F55Y/I96L/K41T/L162R/M171V/P40S/Q125H/Q178H/Q39Y/R42S/S66N/T106N/T262R/W38E/Y61H); test: biochemical; type: binding; settings: tracer MT 2-16, read-out: IC50, binding to HLA-DR3
# T6 construct: endogenous in cells; host or cells: homozygous EBV-transformed human B lymphocyte lines; immunopurified with antibody L243
# [23] = tested on: T lymphocytes derived from PBMCs from patients chronically infected with HCV; type: cell-based, human; settings: supernatant 48 h, —: not detected
# [24] = tested on: DR1; test: DR1
# [25] = read-out: binds with good affinity to DR1
# [26] = read-out: binds with good affinity to DR11
# [27] = read-out: binds with good affinity to DRB5
molecule,measurement,setting,value
CC[C@H](C)[C@H](NC(=O)[C@H](CCC(N)=O)NC(=O)CNC(=O)CNC(=O)CNC(=O)[C@@H]1CCCN1C(=O)[C@H](Cc1ccccc1)NC(=O)[C@H](CCCCN)NC(=O)[C@@H](NC(=O)[C@H](CC(=O)O)NC(=O)[C@H](CCC(N)=O)NC(=O)[C@@H]1CCCN1)C(C)C)C(=O)N[C@H](C(=O)NCC(=O)NCC(=O)N[C@H](C(=O)N[C@@H](Cc1ccc(O)cc1)C(=O)N[C@@H](CC(C)C)C(=O)N[C@@H](CC(C)C)C(=O)N1CCC[C@H]1C(=O)N[C@@H](CCCNC(=N)N)C(=O)N[C@@H](CCCNC(=N)N)C(=O)NCC(=O)N1CCC[C@H]1C(=O)N[C@@H](CCCNC(=N)N)C(=O)N[C@@H](CC(C)C)C(=O)NCC(=O)N[C@H](C(=O)N[C@@H](CCCNC(=N)N)C(=O)O)C(C)C)C(C)C)C(C)C [1C 19-47],IC50,"[1]; DRB1*1501, read-out: binds with good affinity to DR15",< 1000 nM
same,IC50,[2],6000 nM
same,IC50,[3],> 100000 nM
same,IC50,[4],70000 nM
same,IC50,[5]; read-out: binds with good affinity to DR7,< 1000 nM
same,IC50,[6],158 nM
same,IC50,[7],483 nM
same,IC50,[8],58 nM
same,IC50,[9]; read-out: binds with good affinity to DR13,< 1000 nM
same,IC50,[10],288 nM
same,IC50,[11],4520 nM
same,IC50,[12],> 100000 nM
same,IC50,[13]; [25],< 1000 nM
same,IC50,[14]; [26],< 1000 nM
same,IC50,[15],< 1000 nM
same,IC50,[16]; [27],< 1000 nM
same,IC50,[17],9 nM
KVLVLNPSVAATLGF [18N 1250-1264],response of line P014/A (T lymphocytes secreting IFN-γ),[18],responds
RLRAYMNTPGLPVAQ [28N 1538-1552],response of line P014/C (T lymphocytes secreting IFN-γ),[18],responds
VSKGWRLLAPITAYA [8N 1019-1033],response of line P014/B (T lymphocytes secreting IFN-γ),"[18]; line P014/B, FIG. 5B",responds
CC[C@H](C)[C@H](NC(=O)[C@H](CS)NC(=O)CNC(=O)[C@H](CC(C)C)NC(=O)[C@H](CC(C)C)NC(=O)CNC(=O)[C@H](CCCNC(=N)N)NC(=O)[C@@H](N)[C@@H](C)O)C(=O)N[C@H](C(=O)N[C@H](C(=O)N[C@@H](CO)C(=O)N[C@@H](CC(C)C)C(=O)N[C@H](C(=O)NCC(=O)N[C@@H](CCCNC(=N)N)C(=O)N[C@@H](CC(=O)O)C(=O)N[C@@H](CCCCN)C(=O)N[C@@H](CC(N)=O)C(=O)N[C@@H](CCC(N)=O)C(=O)N[C@H](C(=O)O)C(C)C)[C@@H](C)O)[C@@H](C)O)[C@@H](C)CC [9N 1036-1055] (H-TRGLLGCIITSLTGRDKNQV-OH; N-terminus and C-terminus assumed),IC50,"[1]; read-out: IC50, binding to HLA-DR15",5500 nM
same,IC50,[2],150 nM
same,IC50,[19]; read-out: binds with good affinity to DR4,< 1000 nM
same,IC50,"[19]; tracer HA 306-318, read-out: IC50, binding to HLA-DR4",950 nM
same,IC50,[20]; read-out: binds with good affinity to DRB4,< 1000 nM
same,IC50,"[20]; tracer E2/E168, read-out: IC50, binding to HLA-DRB4",1000 nM
same,IC50,[3],6000 nM
same,IC50,[4],60 nM
same,IC50,"[5]; read-out: IC50, binding to HLA-DR7",2600 nM
same,IC50,[21],4580 nM
same,IC50,[6],10000 nM
same,IC50,"[9]; tracer B1 21-36, read-out: IC50, binding to HLA-DR13",> 100000 nM
same,IC50,[11],5330 nM
same,IC50,"[13]; competition with biotinylated tracer HA 306-318, read-out: IC50, binding to HLA-DR1",51 nM
same,IC50,[13]; [25],< 1000 nM
same,IC50,[14]; [26],< 1000 nM
same,IC50,"[14]; tracer HA 306-318, read-out: IC50, binding to HLA-DR11",700 nM
same,IC50,[16]; [27],< 1000 nM
same,IC50,"[16]; tracer HA 306-318, read-out: IC50, binding to HLA-DRB5",53 nM
same,IC50,[22],> 100000 nM
same,IC50,[17],10 nM
same,IL10,[23]; patient 067,58 pg/mL
same,IL10,[23]; patient 078,58 pg/mL
same,IL10,[23]; patient 659,18 pg/mL
same,IL10,[23]; patient 815,156 pg/mL
same,IL2,[23]; patient 862,29.1 pg/mL
same,IC50,[24],93 nM
GIFRAAVCTRGVAKA [15N 1178-1192],response of line P014/A (T lymphocytes secreting IFN-γ),[18],responds
same,response of line P014/C (T lymphocytes secreting IFN-γ),[18],responds
